Measured values: ChEMBL document CHEMBL1201862, “PubChem BioAssay data set” (2004)
Where a name gives a salt, the structure may show the parent alone. The source made the active and inactive calls.

Columns and labels:
Transthyretin = Transthyretin (Homo sapiens, UniProt P02766); assay: Luminescence-based cell-based high throughput dose response assay to identify activators of Transthyretin (TTR) transcription.; assay type: functional
[1] = target: T1, Zinc finger protein mex-5 (Caenorhabditis elegans, UniProt Q9XUB2); assay: potency of MEX-5 RNA-binding blockers – biochemical, C. elegans, fluorescence polarization, dose response (AID 1960)
T1 sequence (Q9XUB2 whole entry): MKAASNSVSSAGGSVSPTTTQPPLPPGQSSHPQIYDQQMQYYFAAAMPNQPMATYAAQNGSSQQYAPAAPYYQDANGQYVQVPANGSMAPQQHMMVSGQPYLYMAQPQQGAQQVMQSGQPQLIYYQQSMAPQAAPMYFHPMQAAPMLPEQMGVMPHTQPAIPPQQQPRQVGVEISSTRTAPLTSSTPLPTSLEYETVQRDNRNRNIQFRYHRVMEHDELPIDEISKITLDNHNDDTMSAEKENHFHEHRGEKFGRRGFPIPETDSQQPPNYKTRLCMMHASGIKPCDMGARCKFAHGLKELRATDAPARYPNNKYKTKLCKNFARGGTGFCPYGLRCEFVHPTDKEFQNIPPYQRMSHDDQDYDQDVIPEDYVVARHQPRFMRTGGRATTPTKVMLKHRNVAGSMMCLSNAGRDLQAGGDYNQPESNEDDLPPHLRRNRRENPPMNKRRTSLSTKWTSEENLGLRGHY

[2] = target: Bifunctional protein GlmU (Mycobacterium tuberculosis, UniProt P9WMN3); assay: Inhibitors of Mycobacterial Glucosamine-1-phosphate acetyl transferase (GlmU). Secondary screen.; parameters: species or system Mycobacterium tuberculosis H37Rv
Caspase-6 = target: T2, Caspase-6 (Homo sapiens, UniProt P55212); assay: inhibition of CASP6 peptide cleavage – biochemical, VEID-R110 fluorescence, cherry-pick, dose response (AID 720632)
T2 sequence (P55212 whole entry): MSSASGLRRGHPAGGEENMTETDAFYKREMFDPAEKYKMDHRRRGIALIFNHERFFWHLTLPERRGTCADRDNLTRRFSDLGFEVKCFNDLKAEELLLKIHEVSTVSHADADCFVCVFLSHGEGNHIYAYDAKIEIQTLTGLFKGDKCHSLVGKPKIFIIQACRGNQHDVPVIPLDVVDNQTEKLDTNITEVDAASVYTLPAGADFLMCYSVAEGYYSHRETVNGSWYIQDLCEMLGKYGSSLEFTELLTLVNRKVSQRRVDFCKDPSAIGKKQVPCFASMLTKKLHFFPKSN

Vero = assay: viability of Vero cells under compound – cytotoxicity control for flavivirus capping enzyme inhibitors (AID 588742); assay type: functional; settings: Chlorocebus sabaeus
[3] = target: T3, RNA-binding protein pos-1 (Caenorhabditis elegans, UniProt G5EF15); assay: disruptors of C. elegans POS-1 RNA interaction – biochemical, fluorescence polarization, dose response (AID 1964);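 also: purified POS-1 fused to maltose binding protein made in E. coli; potency of compounds blocking POS-1 binding to fluorescent RNA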
T3 sequence (G5EF15 whole entry): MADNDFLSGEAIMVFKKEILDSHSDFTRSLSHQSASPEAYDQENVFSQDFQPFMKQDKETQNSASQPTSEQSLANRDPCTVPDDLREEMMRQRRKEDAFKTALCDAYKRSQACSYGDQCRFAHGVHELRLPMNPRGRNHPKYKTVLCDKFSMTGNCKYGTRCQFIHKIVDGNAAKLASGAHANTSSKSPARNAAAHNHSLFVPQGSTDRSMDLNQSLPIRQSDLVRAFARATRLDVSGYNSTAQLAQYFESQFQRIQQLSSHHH

Genome polyprotein = Genome polyprotein (dengue virus type 2, UniProt P29990); assay: flavivirus cap methylation enzyme inhibition – biochemical, confirmation dose response, primary screen (AID 588689); assay type: functional
[4] = target: Induced myeloid leukemia cell differentiation protein Mcl-1 (Homo sapiens, UniProt Q07820); assay type: functional
Prothrombin = Prothrombin (Homo sapiens, UniProt P00734); assay: Thrombin 1536 HTS Dose Response Confirmation. [Related pubchem assays: 1046 (Thrombin 1536 HTS; hits were confirmed in this assay)]; assay type: functional
[5] = HIV-1 Vif–A3G interaction blockers – biochemical, TR-FRET, GST-Vif 1-94, biotin-A3G peptide, dose response retest, primary screen (AID 1117319); assay type: functional;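 also: TR-FRET signal of purified GST-Vif binding a biotinylated A3G peptide; inhibitors lower the FRET signal by blocking Vif and A3G binding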
[6] = viability loss in human Jurkat cells – cell-based, luminescence, cytotoxicity control for P. falciparum gametocyte viability project, dose response (AID 1117277); assay type: functional;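 also: potency reflects loss of cellular ATP meaning fewer viable cells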
[7] = viability inhibitors of stage V gametocytes – luminescence, dose response (AID 1117278); assay type: functional, cell-based;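 also: gametocytes exposed to compound for 24 hours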
[8] = target: E3 ubiquitin-protein ligase Mdm2 (Homo sapiens, UniProt Q00987); assay: MDM2-luc reporter signal enhancers, multi-concentration potency testing, MDM2 ubiquitin-protein ligase inhibitor program, whole-cell format, luminescence detection, 384-well microplate (AID 1394); assay type: functional;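 also: MDM2 E3 inhibitors raise luminescence so EC50 is for signal enhancement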
[9] = viability loss in Vero cells – cytotoxicity control for Vif-APOBEC3G degradation inhibitor project, dose response (AID 1117358); assay type: functional; settings: Vero
[10] = A549 lung cell viability reduction – CellTiter-Glo luminescence, cherry-pick, cytotoxicity control, dose response (AID 743484); assay type: functional, cell-based
[11] = target: Oxysterols receptor LXR-beta (Homo sapiens, UniProt P55055); assay type: functional, cell-based;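 also: Cell-based luminescence dose-response assay of agonist activity at LXR, run as a confirmatory counterscreen to a daf-12 agonist screen; HEK293 cells with Gal4-LXR fusion and GAL4-driven luciferase reporter; agonist potency from rising luciferase signal of a Gal4-LXR reporter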
cells [12] = assay: cells
[13] = OVCAR8 cell viability loss – plate reader, dry powder samples, PAX8 project, dose response (AID 743197); assay type: functional, cell-based; settings: OVCAR-8
[14] = toxicity toward immortalized ovarian surface epithelium – cell-based, plate reader, dry powder samples, cytotoxicity control for PAX8 inhibitor project, dose response (AID 743045); assay type: functional
[15] = OVCAR-3 cell viability loss – plate reader, dry powder samples, PAX8 inhibitor project, dose response (AID 743044); assay type: functional, cell-based
[16] = A2780 cell killing – plate reader, dry powder samples, cytotoxicity control, dose response (AID 743046); assay type: functional, cell-based
[17] = viability loss in MITF-independent A375 cells – cell-based, CellTiter-Glo luminescence, dry powder, set 2, counter-screen for MITF inhibitor project, dose response (AID 624489); assay type: functional; settings: A-375;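 also: actives are compounds lowering A375 viability meaning general cytotoxicity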
[18] = cytotoxicity in MITF-independent A375 cells – cell-based, CellTiter-Glo luminescence, dry powder, set 4, counter-screen for MITF inhibitor project, dose response (AID 624364); assay type: functional; settings: A-375;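 also: A375 melanoma cells are MITF independent so this is a counter screen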
[19] = target: E3 ubiquitin-protein ligase UHRF1 (Homo sapiens, UniProt Q96T88); assay: Counterscreen for inhibitors of 5-meCpG-binding domain protein 2 (MBD2): TRFRET-based biochemical high throughput dose response assay to identify inhibitors of binding of ubiquitin-like with PHD and ring finger domains 1 (UHRF1) to methylated oligonucleotide.
Fibrinogen beta chain [20] = target: T4, Fibrinogen beta chain (Homo sapiens, UniProt P02675); assay: Fluorescence polarization-based biochemical high throughput dose response assay to identify inhibitors that disrupt the binding of a cyclic peptide (Tn6) to the fibrin proteolytic product D-Dimer and fragment E complex [DD(E )].
[21] = target: T5, Rac GTPase-activating protein 1 (Homo sapiens, UniProt Q9H0H5); assay: blockers of MgcRacGAP-driven Rac1 GTP hydrolysis – biochemical, ADP Hunter fluorescence, primary and confirmatory, confirmation (AID 624330); assay type: functional
T5 sequence (Q9H0H5 whole entry): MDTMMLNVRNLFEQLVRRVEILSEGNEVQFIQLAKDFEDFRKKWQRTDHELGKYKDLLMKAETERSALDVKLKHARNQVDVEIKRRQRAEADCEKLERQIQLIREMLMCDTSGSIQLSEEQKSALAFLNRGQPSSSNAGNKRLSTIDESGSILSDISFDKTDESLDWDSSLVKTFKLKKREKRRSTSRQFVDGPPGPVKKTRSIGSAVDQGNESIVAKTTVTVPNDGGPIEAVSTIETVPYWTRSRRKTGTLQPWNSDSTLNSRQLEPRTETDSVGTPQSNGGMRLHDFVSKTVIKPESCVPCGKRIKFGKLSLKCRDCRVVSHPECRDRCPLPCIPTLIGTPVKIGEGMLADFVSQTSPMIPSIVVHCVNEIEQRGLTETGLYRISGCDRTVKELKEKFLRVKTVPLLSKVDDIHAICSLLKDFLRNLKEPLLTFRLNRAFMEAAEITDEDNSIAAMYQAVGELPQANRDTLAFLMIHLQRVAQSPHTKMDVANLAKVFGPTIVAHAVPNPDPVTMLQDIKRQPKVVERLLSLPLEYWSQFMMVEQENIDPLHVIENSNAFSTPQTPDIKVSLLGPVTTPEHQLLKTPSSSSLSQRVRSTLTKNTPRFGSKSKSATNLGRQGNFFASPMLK

Fibrinogen beta chain [22] = target: T4, Fibrinogen beta chain; assay: Fluorescence polarization-based biochemical high throughput dose response assay to identify inhibitors that disrupt the binding of a cyclic peptide (Tn7) to the fibrin proteolytic product D-Dimer and fragment E complex [DD(E )].
[23] = viability loss in HepG2 hepatoma cells – cell-based, ATP luminescence, dry powder, set 2, cytotoxicity control, dose response (AID 743129); assay type: functional
[24] = viability loss in HEK293T cells – cell-based, ATP luminescence, dry powder, set 3, cytotoxicity control, dose response (AID 743131); assay type: functional; settings: HEK293
[25] = target: G-protein coupled receptor 183 (Homo sapiens, UniProt P32249); assay: SAR confirmation of small molecule antagonists of the EBI2 receptor via a luminescent beta-arrestin assa.; assay type: functional
[26] = target: Protein disulfide-isomerase (Homo sapiens, UniProt P07237); assay: inhibition of PDI-driven insulin aggregation – biochemical, turbidity, absorbance, cherry-picked samples, dose response (AID 602350); assay type: functional
[27] = target: DNA (cytosine-5)-methyltransferase 1 (Homo sapiens, UniProt P26358); assay: inhibition of DNA methylation by DNMT1 – biochemical, fluorescent molecular beacon, confirmation (AID 602386); assay type: functional
ELAV-like protein 1 = ELAV-like protein 1 (Homo sapiens, UniProt Q15717); assay: Identify HuR specific inhibitors.; assay type: functional
[28] = IC50 of insulin release inhibition, rat insulinoma INS-1E line, 5 mM glucose, cell-based (AID 1117331); assay type: functional
[29] = target: T6, DNA repair protein RAD52 homolog (Homo sapiens, UniProt P43351); assay type: functional, biochemical
T6 sequence (P43351 whole entry): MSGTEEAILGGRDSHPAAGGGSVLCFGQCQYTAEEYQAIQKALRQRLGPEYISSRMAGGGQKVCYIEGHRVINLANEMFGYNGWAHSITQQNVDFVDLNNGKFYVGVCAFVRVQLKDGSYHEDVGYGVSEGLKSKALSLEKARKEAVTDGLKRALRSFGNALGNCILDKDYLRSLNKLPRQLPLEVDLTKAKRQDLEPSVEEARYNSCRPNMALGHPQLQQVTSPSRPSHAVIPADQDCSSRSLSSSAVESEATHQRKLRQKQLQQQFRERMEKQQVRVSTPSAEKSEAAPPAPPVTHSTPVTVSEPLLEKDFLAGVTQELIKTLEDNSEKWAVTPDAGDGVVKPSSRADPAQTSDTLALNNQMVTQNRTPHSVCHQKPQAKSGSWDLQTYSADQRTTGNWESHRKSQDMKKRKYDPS

cells [30] = assay type: functional, cell-based; settings: INS-1E

T4 sequence (P02675 whole entry, the tested form may be a part): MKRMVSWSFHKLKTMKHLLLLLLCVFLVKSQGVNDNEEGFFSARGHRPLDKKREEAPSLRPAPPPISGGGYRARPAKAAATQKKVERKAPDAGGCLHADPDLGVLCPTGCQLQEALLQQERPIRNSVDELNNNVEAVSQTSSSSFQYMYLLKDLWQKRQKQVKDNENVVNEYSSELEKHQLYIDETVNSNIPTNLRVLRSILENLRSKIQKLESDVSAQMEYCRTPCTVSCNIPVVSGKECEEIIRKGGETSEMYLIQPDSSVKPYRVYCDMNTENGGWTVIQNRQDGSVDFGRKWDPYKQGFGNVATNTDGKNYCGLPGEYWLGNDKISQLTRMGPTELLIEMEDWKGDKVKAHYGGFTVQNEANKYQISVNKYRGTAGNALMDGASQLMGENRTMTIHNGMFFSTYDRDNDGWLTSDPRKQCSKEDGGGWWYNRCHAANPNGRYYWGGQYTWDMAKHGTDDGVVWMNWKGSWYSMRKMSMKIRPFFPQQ
Protein disulfide-isomerase, sequence (P07237 whole entry): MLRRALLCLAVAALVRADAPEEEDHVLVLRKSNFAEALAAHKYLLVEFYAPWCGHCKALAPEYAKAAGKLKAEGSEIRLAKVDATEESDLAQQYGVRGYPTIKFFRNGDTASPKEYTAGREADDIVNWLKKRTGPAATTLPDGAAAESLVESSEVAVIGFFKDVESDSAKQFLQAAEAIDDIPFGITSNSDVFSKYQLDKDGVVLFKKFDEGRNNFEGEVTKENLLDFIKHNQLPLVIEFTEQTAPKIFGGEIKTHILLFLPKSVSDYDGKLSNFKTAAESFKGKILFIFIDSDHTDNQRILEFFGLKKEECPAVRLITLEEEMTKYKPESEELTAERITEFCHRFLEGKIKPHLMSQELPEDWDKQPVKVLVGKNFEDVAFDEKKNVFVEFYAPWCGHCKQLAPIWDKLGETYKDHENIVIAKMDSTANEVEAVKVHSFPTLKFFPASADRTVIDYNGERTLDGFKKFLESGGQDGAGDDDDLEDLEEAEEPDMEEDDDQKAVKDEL
E3 ubiquitin-protein ligase UHRF1, sequence (Q96T88 whole entry, the tested form may be a part): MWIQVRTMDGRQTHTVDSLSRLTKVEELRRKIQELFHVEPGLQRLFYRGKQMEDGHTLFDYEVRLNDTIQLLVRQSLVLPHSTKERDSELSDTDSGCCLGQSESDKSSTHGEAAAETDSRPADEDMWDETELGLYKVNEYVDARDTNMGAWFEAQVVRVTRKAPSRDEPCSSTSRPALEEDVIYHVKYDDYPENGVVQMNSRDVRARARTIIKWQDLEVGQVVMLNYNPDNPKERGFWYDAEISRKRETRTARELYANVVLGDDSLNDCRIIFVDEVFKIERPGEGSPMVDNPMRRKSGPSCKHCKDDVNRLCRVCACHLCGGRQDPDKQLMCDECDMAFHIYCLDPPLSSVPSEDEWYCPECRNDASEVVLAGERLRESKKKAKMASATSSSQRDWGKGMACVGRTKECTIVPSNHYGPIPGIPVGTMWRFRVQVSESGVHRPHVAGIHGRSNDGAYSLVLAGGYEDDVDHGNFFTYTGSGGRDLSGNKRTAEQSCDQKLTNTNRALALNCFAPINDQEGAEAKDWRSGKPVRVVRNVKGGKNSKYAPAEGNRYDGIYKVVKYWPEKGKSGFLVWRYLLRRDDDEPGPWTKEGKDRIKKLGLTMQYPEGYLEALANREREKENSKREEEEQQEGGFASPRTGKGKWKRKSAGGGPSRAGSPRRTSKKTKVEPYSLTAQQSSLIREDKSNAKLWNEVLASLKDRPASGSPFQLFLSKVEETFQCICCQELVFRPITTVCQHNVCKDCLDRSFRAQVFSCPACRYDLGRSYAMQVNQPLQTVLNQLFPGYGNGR
DNA (cytosine-5)-methyltransferase 1, sequence (P26358 whole entry): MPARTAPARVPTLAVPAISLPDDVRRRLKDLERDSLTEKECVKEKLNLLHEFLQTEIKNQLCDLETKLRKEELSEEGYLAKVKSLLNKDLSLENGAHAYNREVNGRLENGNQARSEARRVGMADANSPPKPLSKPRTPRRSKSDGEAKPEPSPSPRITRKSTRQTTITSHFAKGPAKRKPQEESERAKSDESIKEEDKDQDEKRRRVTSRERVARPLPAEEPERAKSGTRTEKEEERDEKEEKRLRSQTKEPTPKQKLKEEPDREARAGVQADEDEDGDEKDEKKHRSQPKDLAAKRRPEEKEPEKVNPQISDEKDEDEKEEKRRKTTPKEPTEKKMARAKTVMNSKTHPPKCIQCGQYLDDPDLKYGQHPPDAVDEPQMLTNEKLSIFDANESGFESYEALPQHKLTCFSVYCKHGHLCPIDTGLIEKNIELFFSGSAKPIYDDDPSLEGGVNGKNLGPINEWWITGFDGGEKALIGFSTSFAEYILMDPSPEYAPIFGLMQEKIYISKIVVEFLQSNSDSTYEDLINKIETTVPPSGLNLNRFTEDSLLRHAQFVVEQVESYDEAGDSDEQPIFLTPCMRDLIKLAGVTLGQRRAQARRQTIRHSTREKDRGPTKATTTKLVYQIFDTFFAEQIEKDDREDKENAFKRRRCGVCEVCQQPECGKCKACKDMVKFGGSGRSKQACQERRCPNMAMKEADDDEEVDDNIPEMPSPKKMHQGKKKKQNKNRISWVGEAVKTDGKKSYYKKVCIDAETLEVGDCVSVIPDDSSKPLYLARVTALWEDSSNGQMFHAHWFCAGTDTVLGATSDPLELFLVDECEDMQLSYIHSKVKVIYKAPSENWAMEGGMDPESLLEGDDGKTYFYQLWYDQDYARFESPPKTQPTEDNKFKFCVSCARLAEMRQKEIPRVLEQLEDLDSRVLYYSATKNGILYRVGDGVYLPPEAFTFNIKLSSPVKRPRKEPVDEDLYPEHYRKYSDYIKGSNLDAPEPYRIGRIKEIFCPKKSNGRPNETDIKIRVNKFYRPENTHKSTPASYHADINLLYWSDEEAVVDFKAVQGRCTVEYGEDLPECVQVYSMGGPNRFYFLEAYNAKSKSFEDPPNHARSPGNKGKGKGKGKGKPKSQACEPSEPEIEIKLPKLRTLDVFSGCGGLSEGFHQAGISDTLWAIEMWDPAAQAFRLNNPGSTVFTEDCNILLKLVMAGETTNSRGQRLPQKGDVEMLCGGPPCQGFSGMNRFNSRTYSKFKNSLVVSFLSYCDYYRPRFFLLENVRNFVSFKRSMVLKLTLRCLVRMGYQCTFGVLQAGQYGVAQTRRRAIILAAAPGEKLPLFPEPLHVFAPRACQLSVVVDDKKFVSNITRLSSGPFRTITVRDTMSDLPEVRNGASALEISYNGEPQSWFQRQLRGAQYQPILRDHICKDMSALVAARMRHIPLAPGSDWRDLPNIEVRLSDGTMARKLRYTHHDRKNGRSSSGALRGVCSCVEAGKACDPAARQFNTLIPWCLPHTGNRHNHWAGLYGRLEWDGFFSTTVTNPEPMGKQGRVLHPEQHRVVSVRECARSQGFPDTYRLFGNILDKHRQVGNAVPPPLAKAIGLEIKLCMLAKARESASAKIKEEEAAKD
Genome polyprotein, sequence (P29990 2492-3391 limits assumed): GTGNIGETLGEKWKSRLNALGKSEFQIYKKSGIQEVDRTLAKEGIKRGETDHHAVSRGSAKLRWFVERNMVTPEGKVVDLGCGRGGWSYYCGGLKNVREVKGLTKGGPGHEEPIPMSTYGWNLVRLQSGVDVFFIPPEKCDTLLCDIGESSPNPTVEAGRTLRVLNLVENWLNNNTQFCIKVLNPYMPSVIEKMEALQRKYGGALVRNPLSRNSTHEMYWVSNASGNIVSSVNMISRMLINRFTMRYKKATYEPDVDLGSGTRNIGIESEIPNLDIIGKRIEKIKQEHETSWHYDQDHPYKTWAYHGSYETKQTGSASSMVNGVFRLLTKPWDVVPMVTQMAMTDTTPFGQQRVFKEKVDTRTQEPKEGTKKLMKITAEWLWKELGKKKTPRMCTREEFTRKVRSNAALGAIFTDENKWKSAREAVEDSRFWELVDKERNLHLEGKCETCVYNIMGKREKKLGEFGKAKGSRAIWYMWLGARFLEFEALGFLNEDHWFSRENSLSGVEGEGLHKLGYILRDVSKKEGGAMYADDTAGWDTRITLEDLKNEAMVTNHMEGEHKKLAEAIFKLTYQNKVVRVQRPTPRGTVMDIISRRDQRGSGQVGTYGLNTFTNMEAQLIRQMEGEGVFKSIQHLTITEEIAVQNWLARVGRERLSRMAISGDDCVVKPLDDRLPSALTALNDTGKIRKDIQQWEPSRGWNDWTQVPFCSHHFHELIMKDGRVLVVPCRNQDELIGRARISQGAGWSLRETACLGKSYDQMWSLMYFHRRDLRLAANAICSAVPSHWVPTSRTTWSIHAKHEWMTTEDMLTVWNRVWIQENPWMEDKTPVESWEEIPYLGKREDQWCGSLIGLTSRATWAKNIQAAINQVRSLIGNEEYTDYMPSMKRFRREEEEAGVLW
ELAV-like protein 1, sequence (Q15717 whole entry): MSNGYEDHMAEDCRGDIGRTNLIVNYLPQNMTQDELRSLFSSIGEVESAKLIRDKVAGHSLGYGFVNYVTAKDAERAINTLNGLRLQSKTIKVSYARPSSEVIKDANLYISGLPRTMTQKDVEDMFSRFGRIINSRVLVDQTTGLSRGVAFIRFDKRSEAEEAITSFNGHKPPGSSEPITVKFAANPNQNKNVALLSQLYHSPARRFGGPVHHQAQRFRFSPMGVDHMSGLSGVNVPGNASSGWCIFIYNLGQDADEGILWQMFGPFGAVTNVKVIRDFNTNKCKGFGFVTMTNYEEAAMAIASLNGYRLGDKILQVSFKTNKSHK
G-protein coupled receptor 183, sequence (P32249 whole entry): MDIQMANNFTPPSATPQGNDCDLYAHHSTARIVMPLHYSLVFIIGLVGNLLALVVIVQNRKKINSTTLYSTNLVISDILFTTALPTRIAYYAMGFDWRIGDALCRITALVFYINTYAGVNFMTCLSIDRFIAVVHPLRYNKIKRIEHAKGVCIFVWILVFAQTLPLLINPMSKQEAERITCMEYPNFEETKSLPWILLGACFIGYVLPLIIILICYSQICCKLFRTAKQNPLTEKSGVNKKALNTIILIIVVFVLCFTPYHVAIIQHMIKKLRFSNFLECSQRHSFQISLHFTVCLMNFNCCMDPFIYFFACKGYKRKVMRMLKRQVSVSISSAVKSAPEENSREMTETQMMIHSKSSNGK

SMILES: Cc1c(NS(=O)(=O)c2ccc(NC3CCCC3)c([N+](=O)[O-])c2)c(=O)n(-c2ccccc2)n1C
- EC50 (Transthyretin): > 167 µM (inactive)

SMILES: O=c1ccc2[n+]([O-])c3ccc(O)cc3oc-2c1
- EC50 [1]: 37.7 µM (active)
- IC50 [2]: 59.4 µM (active)
- AC50 (Caspase-6): 0.285 µM (active)
- CC50 (Vero): > 40 µM (active)
- EC50 [3]: > 300 µM (not active)
- IC50 (Genome polyprotein): 1.61 µM (active)
- IC50 [4]: 10.1 µM (not active)

SMILES: COc1cc(OC)cc(C(=O)NNC(=O)c2ccccc2Br)c1
- IC50 (Prothrombin): > 50 µM (not active)
- IC50 [5]: > 100 µM (active)

SMILES: Cc1ccc(NC(=O)Cn2cccc2)c(C)c1
- IC50 [6]: > 83.4 µM (inactive)
- IC50 [7]: > 109 µM (inactive)

SMILES: COc1ccc(CCNC(=O)COC(=O)c2cnc(C)cn2)cc1OC
- EC50 [8]: 0.17 µM (not active)

SMILES: Cn1c(Cn2c(=O)sc3ccccc32)nnc1SCC(=O)NCc1ccc(F)cc1
- CC50 [9]: > 40 µM (active)

SMILES: CC(CNc1ccc(Cl)cc1)(CNc1ccc(Cl)cc1)[N+](=O)[O-]
- AC50 [10]: > 52 µM (inactive)

SMILES: O=C1C(/C=N/c2ccccc2)=C(O)c2ccccc21
- EC50 [11]: > 67.5 µM (inactive)
- EC50 (cells [12]): > 67.5 µM (inactive)

SMILES: O=C(Nc1ccccc1)N1CCCCN2[C@@H](CO)[C@@H](c3ccc(C#Cc4ccccc4)cc3)[C@@H]2C1
- AC50 [13]: 17.5 µM (active)
- AC50 [14]: 19.3 µM (active)
- AC50 [15]: 7.13 µM (active)
- AC50 [16]: 13.7 µM (active)

SMILES: COc1ccc(C(=O)NC2=C(c3ccccc3)C(=O)c3ccccc3C2=O)cc1
- AC50 [17]: 20.9 µM (active)
- AC50 [18]: 40.6 µM (active)

SMILES: CC(=O)Nc1sc2c(c1-c1nc3ccccc3s1)CN(C(C)C)C2
- IC50 [19]: > 43.8 µM (inactive)

SMILES: CCC/C(=N\c1ccc(N)cc1)C1=C(O)C(C(=O)OC)C(C)(C)CC1=O (stereo unspecified)
- IC50 (Fibrinogen beta chain [20]): > 83.3 µM (inactive)
- IC50 [21]: 9.5 µM (active)
- IC50 (Fibrinogen beta chain [22]): > 83.3 µM (inactive)

SMILES: CCOC(=O)c1c(NC(=O)CNCCN(C)C)sc(C)c1-c1ccccc1
- AC50 [23]: > 52 µM (inactive)
- AC50 [24]: 7.22 µM (active)

SMILES: O=C(/C=C/c1ccc(F)cc1)N1CCN(S(=O)(=O)c2cccc(F)c2)CC1
- IC50 [25]: 0.0196 µM (active)

SMILES: COC(=O)CC1OCC=C2CN3CCC45C6=CC(=O)C(=O)C([N+](=O)[O-])=C6NC4C1C2CC35 (stereo unspecified)
- AC50 [26]: 8.03 µM (active)
- IC50 [27]: 6.06 µM (active)
- IC50 (ELAV-like protein 1): 69.6 µM (inactive)

SMILES: CCC(=O)c1ccc2c(c1)N(CCCN(C)C)c1ccccc1S2 [PROPIONYLPROMAZINE HYDROCHLORIDE]
- IC50 [28]: 10.7 µM (inactive)
- AC50 [29]: 31.4 µM (active)
- IC50 (cells [30]): > 33.3 µM (inactive)
